Measured values as given in PubChem BioAssay AID1996.
≈ marks a conversion by molar mass, not a printed value.

Details: buffer; pH 7.4; 200.0 µM

SMILES | solubility kinetic
Nc1c(C(=O)N2CCCCCC2)oc2ccccc12 | > 38.7 µg/mL
CCc1ccccc1NC(=O)C1CCN(c2cnccn2)CC1 | > 46.6 µg/mL
CCc1ccc(OCC(=O)N2CC(C(=O)OC)Oc3ccccc32)cc1 (stereo not drawn) | 36.6 µg/mL (≈ 103 µM)
CN(NC1OC(=O)c2ccccc21)c1ccccc1[N+](=O)[O-] (stereo not drawn) | > 44.9 µg/mL
O=C(CNC(=O)c1sc2ccccc2c1Cl)NC1CC1 | 4 µg/mL (≈ 13 µM)
CCC1(c2ccc(Cl)cc2)NC(=O)N(CC(=O)NC2(C#N)CCCCC2)C1=O (stereo not drawn) | > 60.4 µg/mL
COc1ccc(Nc2nc3ccccc3c(=O)[nH]2)cc1 | 24.4 µg/mL (≈ 91.3 µM)
COc1ccccc1NS(=O)(=O)c1ccc2[nH]c(=O)[nH]c2c1 | > 47.9 µg/mL
CCCN1CCN(C(=O)c2oc3c(Cl)cccc3c2C)CC1 | 35.7 µg/mL (≈ 111 µM)
Cn1c(NC2CCCCC2)cc(=O)n(C)c1=O | > 35.6 µg/mL
Cc1ccc(NC(=O)c2cc3ccccc3o2)cc1Cl | < 0.6 µg/mL
CC(=O)N1CC(=O)N(c2ccccc2)C1=O | > 32.7 µg/mL
COC(=O)Cn1cc(C=C2C(=O)N(C)C(=O)N(C)C2=O)c2ccccc21 | 3.8 µg/mL (≈ 10.7 µM)
CCC(C)NC(=S)Nc1ccc(F)cc1 (stereo not drawn) | > 33.9 µg/mL
Cc1cccc(/N=C2/NC(=O)C(Cc3ccccc3)S2)n1 (stereo not drawn) | 0.3 µg/mL (≈ 1.01 µM)
Cc1ccc(S(=O)(=O)N2CCN(c3ccccn3)CC2)cc1 | 0.3 µg/mL (≈ 0.945 µM)
O=C(Nc1csc([N+](=O)[O-])c1)Nc1c(Cl)cccc1Cl | 1.9 µg/mL (≈ 5.72 µM)
CN(C)C(CNC(=O)c1cccc(C#N)c1)c1ccco1 (stereo not drawn) | 39.3 µg/mL (≈ 139 µM)
CC1(C(=O)O)CCC(C(=O)N2CCCCC2)C1(C)C (stereo not drawn) | > 40.1 µg/mL
O=C(Nc1cnccn1)c1ccc(Cl)cc1 | 34.7 µg/mL (≈ 149 µM)
CCn1c(C)nc2cc(C(=O)NN=Cc3ccccc3OC(F)F)ccc21 | > 55.9 µg/mL
Cc1nn(-c2ccc(F)cc2)c(C)c1/C=C/C(=O)N1CCNC(=O)C1 | > 51.4 µg/mL
COc1ccccc1C1CCN(C(=O)c2ccccc2)CC1 | 42.4 µg/mL (≈ 144 µM)
COc1ccccc1-c1c(C#N)c(N)nc2c1CCC2 | 5 µg/mL (≈ 18.8 µM)

SMILES | solubility kinetic
O=C(O)/C=C/C(=O)Nc1cc(F)ccc1F | > 34.1 µg/mL
O=C(COC(=O)C1C2CC3OC(=O)C1C3C2)Nc1ccccc1 (stereo not drawn) | > 47.3 µg/mL
CCc1c(C(=O)OCc2ccccc2)[nH]c(C)c1C | 1.3 µg/mL (≈ 5.05 µM)
Cn1c(SCc2cccnc2)nc2c(c1=O)SCC2 | > 43.7 µg/mL
COc1cccc(NC(=O)CN2C(=O)NC3(CCCCCC3)C2=O)c1 | > 51.8 µg/mL
CC(C)CCC(C)NC(=O)c1ccc2nccnc2c1 (stereo not drawn) | 34.6 µg/mL (≈ 128 µM)
O=C(NC1CCN(Cc2ccccc2)CC1)c1ccccc1 | > 44.2 µg/mL
O=C(CN1CCCCCC1)Nc1ccccc1Cl | 24.9 µg/mL (≈ 93.3 µM)
Cc1onc(-c2ccccc2Cl)c1C(=O)N1CCCC1 | > 43.6 µg/mL
Cc1nc2ccc(NC(=O)c3cnc(Cl)c(Cl)c3)cc2s1 | 0.3 µg/mL (≈ 0.887 µM)
CC(C)[C@H](NS(=O)(=O)c1ccccc1)C(=O)OCC(=O)NCc1ccc2c(c1)OCO2 | > 67.3 µg/mL
CC(=O)c1ccc(OC(C)C(=O)NCC2(N3CCOCC3)CCCCC2)cc1 (stereo not drawn) | > 58.3 µg/mL
CN1CCN(CCC(=O)Nc2cccc(Br)c2)CC1 | 42.6 µg/mL (≈ 131 µM)
Clc1ccccc1/C=C/c1nc(-c2cccnc2)no1 | 0.8 µg/mL (≈ 2.82 µM)
N#Cc1ccc(Oc2cnccn2)cc1 | > 29.6 µg/mL
O=C(NC1CC2CCC(C1)N2Cc1ccccc1)c1cccc(F)c1 (stereo not drawn) | > 50.8 µg/mL
O=C(CCN1C(=O)C2C3CCC(C3)C2C1=O)Nc1ccc(F)cc1 (stereo not drawn) | 36.8 µg/mL (≈ 111 µM)
CC(=O)Oc1ccc2c(=O)oc(-c3ccccc3C)nc2c1 | 8.4 µg/mL (≈ 28.4 µM)
CC(=O)Nc1ccc(N/C=C/C(=O)c2ccccc2)cc1 | 4.1 µg/mL (≈ 14.6 µM)
CC(=O)Nc1ccc(NC(=O)c2nccnc2C(=O)O)cn1 | > 45.2 µg/mL
COC(=O)c1ccc(OCC(=O)NC2CCCCCC2)cc1 | > 45.8 µg/mL
COc1ccccc1NS(=O)(=O)c1cc(NC(=O)c2cccnc2)ccc1N1CCCCC1 | 1.3 µg/mL (≈ 2.79 µM)
O=C(NCc1ccccn1)C(=O)Nc1nc(-c2ccccc2)cs1 | 1.6 µg/mL (≈ 4.73 µM)
CCOCCn1c2ccccc2c2nc3ccccc3nc21 | 4.1 µg/mL (≈ 14.1 µM)

SMILES | solubility kinetic
COc1ccc(/C=C/C(=O)NCc2ccc3c(c2)OCO3)cc1OC | 2.8 µg/mL (≈ 8.2 µM)
COc1ccc(S(=O)(=O)N2CCSC2C)cc1C (stereo not drawn) | 34.9 µg/mL (≈ 121 µM)
NC(=O)c1nc(-c2ccccc2)c(-c2ccccc2)[nH]c1=O | > 43.7 µg/mL
Cc1ccc(S(=O)(=O)N2CCC(C(=O)NCCCN3CCCC3=O)CC2)cc1 | 51.9 µg/mL (≈ 127 µM)
Nc1nc(NCc2ccco2)nc(Nc2ccc(F)cc2)c1[N+](=O)[O-] | 0.1 µg/mL (≈ 0.29 µM)
NC(=O)COc1ccc2cc(-c3ccc(F)cc3)c(=O)oc2c1 | < 0.7 µg/mL
COC(=O)[C@H](CCSC)NC(=O)NC1CC1 | > 36.9 µg/mL
CCCCn1c(N)c(N(C)C(=O)C2CC(=O)N(Cc3ccco3)C2)c(=O)[nH]c1=O (stereo not drawn) | > 60.5 µg/mL
CC(NC(=O)Cc1ccc(Br)cc1)c1ccccc1 (stereo not drawn) | 9.7 µg/mL (≈ 30.5 µM)
CCC(Cc1ccccc1)NC(=O)/C=C/c1ccco1 (stereo not drawn) | 23.7 µg/mL (≈ 88 µM)
COc1ccccc1/C=N/OC(=O)c1ccc(F)cc1 | 0.7 µg/mL (≈ 2.56 µM)
NC(=O)C1CCN(C(=O)c2cc(-c3ccc(Cl)cc3)nc3ccccc23)CC1 | > 59.1 µg/mL
CSCCOC(=O)C1=C(C)NC(=O)NC1c1ccc2c(c1)OCO2 (stereo not drawn) | > 52.6 µg/mL
O=C(Nc1nc2ccccc2s1)c1ccc([N+](=O)[O-])o1 | < 0.2 µg/mL
O=C1c2ccccc2NC(c2ccc(O)cc2)N1c1ccccc1 (stereo not drawn) | 9.5 µg/mL (≈ 30 µM)
COc1ccc(C)cc1S(=O)(=O)NCCN1CCOCC1 | > 47.2 µg/mL
O=C(COc1ccc(Br)cc1)N1CCc2ccccc21 | < 0.7 µg/mL
CC1(C(=O)OCC(=O)NCc2ccc(Cl)cc2)CC1(Cl)Cl (stereo not drawn) | 52.5 µg/mL (≈ 150 µM)
Cc1c(C(=O)N2CCN(C)CC2)oc2ccc(Br)cc12 | > 50.6 µg/mL
O=C(CN1CCCC1)Nc1c(C(=O)C2CC2)oc2ccccc12 | 31.8 µg/mL (≈ 102 µM)
COC(=O)CN1C(=O)N/C(=C/c2ccc(OC)cc2)C1=O | 17.4 µg/mL (≈ 59.9 µM)
COc1ccc(C(=O)NCC(=O)OCC(=O)NC23CC4CC(CC(C4)C2)C3)cc1 | > 60.1 µg/mL
Cc1c(C)n(CCO)c2ncnc(Nc3ccc(F)cc3)c12 | > 45.1 µg/mL
CC(=O)c1ccc(OCCOc2ccc(C#N)cc2)cc1 | 6.8 µg/mL (≈ 24.2 µM)

SMILES | solubility kinetic
COc1ccc(OC)c(-c2cc(C(=O)Nc3ccccc3C(N)=O)c3ccccc3n2)c1 | 5.9 µg/mL (≈ 13.8 µM)
Cn1ncc(Cl)c1C(=O)Nc1ccc(CN2CCCCC2)cc1 | > 49.9 µg/mL
COc1cc(C(=O)NCC(=O)N2CCN(S(=O)(=O)c3ccccc3C(F)(F)F)CC2)cc(OC)c1OC | > 81.8 µg/mL
CN1CN(c2cccc([N+](=O)[O-])c2)CN=C1N[N+](=O)[O-] | > 42 µg/mL
CCCCn1c(C)c(C(=O)O)c2cc(OC)c3ccccc3c21 | 2.9 µg/mL (≈ 9.31 µM)
COc1ccc(C(=O)N=c2sc3ccccc3n2C)cc1OC | < 0.4 µg/mL
O=C(OCC(=O)N1CCc2ccccc21)c1ccc(Br)o1 | 3.7 µg/mL (≈ 10.6 µM)
Cc1ccc(CSCc2ccc(C(=O)NC3CCCC3)o2)cc1 | 1.9 µg/mL (≈ 5.77 µM)
CCN1CCN(C(=O)c2cc(-c3ccc(Cl)s3)nc3ccccc23)CC1 | 53.5 µg/mL (≈ 139 µM)
Cc1cc(C(=O)OCC(N)=O)c(C)n1-c1ccccc1 | 40.1 µg/mL (≈ 147 µM)
CCC(C(=O)NC(CC(=O)O)c1ccc(Cl)cc1)c1ccccc1 (stereo not drawn) | > 51.9 µg/mL
Cc1cccc(NC(=O)c2cc3ccccc3oc2=O)c1 | < 0.6 µg/mL
Cc1cc(C)cc(OCC(=O)Nc2cnn(CCCC(=O)O)c2)c1 | > 49.7 µg/mL
CS(=O)(=O)Nc1ccccc1NS(C)(=O)=O | > 39.6 µg/mL
Cc1ccc(C(=O)Nc2ccccc2)cc1S(=O)(=O)N1CCN(C)CC1 | 31.8 µg/mL (≈ 85.1 µM)
CCOC(=O)C1CCN(C(=O)c2ccc(C)o2)CC1 | > 39.8 µg/mL
Cc1ccccc1NC(=O)NC1CCS(=O)(=O)C1 (stereo not drawn) | > 40.2 µg/mL
CNS(=O)(=O)c1cccc(C(=O)OCC(=O)NC2CCCC(C)C2C)c1 (stereo not drawn) | 12.7 µg/mL (≈ 33.2 µM)
COC(=O)c1ccccc1NC(=S)NC(C)=O | > 37.8 µg/mL
COC(=O)c1sccc1NC(=O)c1ccc(C#N)cc1 | 1.8 µg/mL (≈ 6.29 µM)
CCC(=O)Nc1ccc(OCc2nc3ccccc3s2)cc1 | 2.3 µg/mL (≈ 7.36 µM)
Cl.NC(=NCc1ccccc1)c1cccc([N+](=O)[O-])c1 | > 43.8 µg/mL
Cc1ccc(NCc2ccc(O)c3ncccc23)cc1C | 3.6 µg/mL (≈ 12.9 µM)
O=C(O)CNC(=S)N(Cc1ccccc1)Cc1cccs1 | > 48.1 µg/mL

SMILES | solubility kinetic
O=C1COc2ccc(S(=O)(=O)N3CCc4ccccc43)cc2N1 | 2.4 µg/mL (≈ 7.26 µM)
CC(C)c1cc(=O)n2c(nc3ccccc32)[nH]1 | > 34.1 µg/mL
Cc1ccc(CN2CCCN(C)CC2)c(C)c1 | 23.4 µg/mL (≈ 101 µM)
O=[N+]([O-])c1ccccc1Nc1c2ccccc2nc2ccccc12 | < 0.2 µg/mL
CCOc1ccc(S(=O)(=O)NCc2ccc3c(c2)OCO3)cc1 | 10.9 µg/mL (≈ 32.5 µM)
CCOc1ccccc1N1CCN(C(=O)NC2CCCCC2)CC1 | > 49.7 µg/mL
CC(C)C(NC(=O)C1CC(=O)N(Cc2ccccc2)C1)c1nc2ccccc2[nH]1 (stereo not drawn) | > 58.6 µg/mL
Cc1cc(C)c(C(=O)C(C)OC(=O)c2ccccn2)cc1C (stereo not drawn) | 17.7 µg/mL (≈ 59.5 µM)
O=C1NC(=Nc2ccccc2Cl)S/C1=C\c1cccc([N+](=O)[O-])c1 | 4.2 µg/mL (≈ 11.7 µM)
O=[N+]([O-])c1ccc(CSc2nc3ncc(Br)cc3[nH]2)cc1 | 1.3 µg/mL (≈ 3.56 µM)
COCc1c(C(=O)NCCc2ccc(OC(F)F)cc2)oc2ccccc12 | 13.5 µg/mL (≈ 36 µM)
CNC(=S)Nc1cccc(-c2cnc3ccccc3n2)c1 | 43.7 µg/mL (≈ 148 µM)
C=C(C)Cn1c(N2CCCC2)nc2c1c(=O)n(C)c(=O)n2C | 33.6 µg/mL (≈ 111 µM)
COc1ccc(CCOC(=O)c2ccc(N)c([N+](=O)[O-])c2)cc1 | 1.1 µg/mL (≈ 3.48 µM)
O=C1OCC2=C1C(c1ccccc1)CC(=O)N2c1ccc(F)cc1 (stereo not drawn) | > 48.5 µg/mL
Cl.O=C(CN1CCCCC1)NC1CCc2cc3c(cc21)CCC3 (stereo not drawn) | 45.6 µg/mL
COc1ccc(CN=C(N)N=C(N)N)cc1Cl.Cl | > 43.8 µg/mL
COCC(C)NC(C(=O)Nc1cccc(C(C)=O)c1)c1ccccc1 (stereo not drawn) | > 51.1 µg/mL
O=C(O)C1CCC(CNS(=O)(=O)c2ccc(Cl)cc2)CC1 (stereo not drawn) | 43 µg/mL (≈ 130 µM)
N/C(=N\OC(=O)C1CCCCC1)c1cccc(Br)c1 | 3.5 µg/mL (≈ 10.8 µM)
Cc1cccc(C)c1OCC(=O)Nc1ccc(N2CCOCC2)cc1 | 6 µg/mL (≈ 17.6 µM)
CCOc1ccc2[nH]c3c(=O)n(CCC4=CCCCC4)cnc3c2c1 | 10.7 µg/mL (≈ 31.7 µM)
